This is an account of results in patent US10787446B2 (GENENTECH, INC., priority 2015, dated 2020).

The target of the experiment is T1, hNav1.7 and the β1 subunit (Homo sapiens, UniProt Q15858).
T1 construct: expressed in transfected cells
T1 sequence (Q15858 whole entry): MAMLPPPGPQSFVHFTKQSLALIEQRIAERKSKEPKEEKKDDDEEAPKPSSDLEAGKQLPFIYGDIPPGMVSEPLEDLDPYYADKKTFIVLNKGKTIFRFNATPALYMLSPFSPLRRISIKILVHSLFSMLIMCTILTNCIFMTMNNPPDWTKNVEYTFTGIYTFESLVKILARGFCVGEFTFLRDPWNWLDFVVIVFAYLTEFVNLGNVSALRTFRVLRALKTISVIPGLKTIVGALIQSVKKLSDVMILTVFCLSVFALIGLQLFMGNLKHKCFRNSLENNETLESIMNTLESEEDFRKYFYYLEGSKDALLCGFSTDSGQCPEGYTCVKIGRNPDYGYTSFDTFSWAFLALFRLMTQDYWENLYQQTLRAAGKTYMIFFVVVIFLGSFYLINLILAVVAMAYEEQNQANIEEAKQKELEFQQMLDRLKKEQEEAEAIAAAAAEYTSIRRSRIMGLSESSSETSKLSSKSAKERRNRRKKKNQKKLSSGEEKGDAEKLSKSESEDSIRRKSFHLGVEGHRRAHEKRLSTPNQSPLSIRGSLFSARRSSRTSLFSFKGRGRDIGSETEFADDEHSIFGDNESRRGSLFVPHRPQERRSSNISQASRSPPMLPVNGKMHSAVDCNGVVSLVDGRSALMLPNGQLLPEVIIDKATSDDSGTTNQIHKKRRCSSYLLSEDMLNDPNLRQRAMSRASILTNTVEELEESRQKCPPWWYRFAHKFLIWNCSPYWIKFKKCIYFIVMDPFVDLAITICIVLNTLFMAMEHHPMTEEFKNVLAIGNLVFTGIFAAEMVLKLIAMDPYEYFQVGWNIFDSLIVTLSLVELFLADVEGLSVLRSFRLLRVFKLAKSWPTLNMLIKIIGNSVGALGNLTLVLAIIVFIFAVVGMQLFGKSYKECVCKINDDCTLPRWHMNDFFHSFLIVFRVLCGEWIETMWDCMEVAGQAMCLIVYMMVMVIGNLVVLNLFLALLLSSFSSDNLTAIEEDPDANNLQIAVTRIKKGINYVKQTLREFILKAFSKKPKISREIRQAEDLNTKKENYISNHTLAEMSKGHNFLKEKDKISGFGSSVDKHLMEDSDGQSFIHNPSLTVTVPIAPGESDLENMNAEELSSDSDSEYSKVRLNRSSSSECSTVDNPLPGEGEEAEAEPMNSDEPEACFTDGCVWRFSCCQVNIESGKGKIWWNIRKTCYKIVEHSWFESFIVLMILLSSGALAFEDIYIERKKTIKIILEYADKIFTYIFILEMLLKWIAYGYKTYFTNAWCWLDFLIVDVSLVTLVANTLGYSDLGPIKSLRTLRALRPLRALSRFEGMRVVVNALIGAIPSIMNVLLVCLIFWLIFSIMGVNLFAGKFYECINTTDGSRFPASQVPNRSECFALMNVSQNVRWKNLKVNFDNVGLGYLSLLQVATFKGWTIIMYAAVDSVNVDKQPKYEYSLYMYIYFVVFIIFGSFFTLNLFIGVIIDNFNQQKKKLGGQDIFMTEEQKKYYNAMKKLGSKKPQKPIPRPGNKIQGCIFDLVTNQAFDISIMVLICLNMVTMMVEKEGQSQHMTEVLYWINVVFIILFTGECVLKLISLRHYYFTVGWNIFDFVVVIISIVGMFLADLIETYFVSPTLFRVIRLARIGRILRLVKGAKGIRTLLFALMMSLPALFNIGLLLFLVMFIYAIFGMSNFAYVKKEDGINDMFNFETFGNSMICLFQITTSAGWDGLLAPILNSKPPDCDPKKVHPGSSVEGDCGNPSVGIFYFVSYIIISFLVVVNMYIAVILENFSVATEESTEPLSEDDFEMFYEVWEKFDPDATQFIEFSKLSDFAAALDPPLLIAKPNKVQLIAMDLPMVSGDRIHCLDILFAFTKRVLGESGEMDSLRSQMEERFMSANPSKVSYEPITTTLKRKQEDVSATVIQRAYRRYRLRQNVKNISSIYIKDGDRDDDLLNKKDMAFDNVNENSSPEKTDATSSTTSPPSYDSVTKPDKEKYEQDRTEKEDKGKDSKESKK
T1 sequence (Q07699 19-218 partner): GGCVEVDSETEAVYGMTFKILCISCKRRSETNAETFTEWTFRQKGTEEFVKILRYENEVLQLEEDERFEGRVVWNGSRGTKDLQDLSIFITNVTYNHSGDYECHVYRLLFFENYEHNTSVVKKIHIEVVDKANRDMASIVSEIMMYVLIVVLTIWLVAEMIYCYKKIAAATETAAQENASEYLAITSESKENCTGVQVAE
Put plainly: Tritiated compound competitive binding to membranes from cells heterologously expressing hNav1.7 and the β1 subunit (LBA). As to conditions: competition with 100 pM [3H]compound, 18 h, room temperature; IC50 by 4 parameter logistic model. In short, it runs like this:
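Membranes were incubated 18 h at room temperature with 100 pM [3H]-labelled NaV1.7 inhibitor and increasing test compound in 100 mM NaCl, 20 mM Tris HCl, pH 7.4. Bound radioligand was filtered on PEI-soaked GF/C, washed, and counted by scintillation. IC50 from a 4-parameter logistic fit of % inhibition.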
For `O=S(=O)(Nc1ncns1)c1ccc2c(c1)OCC[C@@H]2N1CC[C@](O)(C(F)(F)F)C[C@@H]1c1ccc(F)cc1` [Example 169, (S)-4-((2R,4R)-2-(4-fluorophenyl)-4-hydroxy-4-(trifluoromethyl)piperidin-1-yl)-N-(1,2,4-thiadiazol-5-yl)chroman-7-sulfonamide], the “Nav1.7 (LBA)” value worked out at 0.0682 µM.
As for `O=S(=O)(Nc1ncns1)c1ccc2c(c1)OCC[C@H]2N1CC[C@](O)(C(F)(F)F)C[C@@H]1c1ccc(F)cc1` [Example 170, (R)-4-((2R,4R)-2-(4-fluorophenyl)-4-hydroxy-4-(trifluoromethyl)piperidin-1-yl)-N-(1,2,4-thiadiazol-5-yl)chroman-7-sulfonamide], the figure is 0.175 µM.
As for `O=S(=O)(Nc1ncns1)c1cc2c(cc1F)[C@H](N1CC[C@@](O)(C(F)(F)F)C[C@H]1c1ccc(F)cc1)CCO2` [Example 171, (R)-6-fluoro-4-((2S,4S)-2-(4-fluorophenyl)-4-hydroxy-4-(trifluoromethyl)piperidin-1-yl)-N-(1,2,4-thiadiazol-5-yl)chroman-7-sulfonamide], the figure is 2.028 µM; as for `O=S(=O)(Nc1ncns1)c1ccc2c(c1)OCC[C@H]2N1CC[C@@H](OC(F)(F)F)C[C@H]1c1ccc(F)cc1` [Example 173, (R)-4-((2S,4R)-2-(4-fluorophenyl)-4-(trifluoromethoxy)piperidin-1-yl)-N-(1,2,4-thiadiazol-5-yl)chroman-7-sulfonamide], 0.000895 µM; as for `O=S(=O)(Nc1ncns1)c1ccc2c(c1)OCC[C@@H]2N1CC[C@@H](OC(F)(F)F)C[C@H]1c1ccc(F)cc1` [Example 174, (S)-4-((2S,4R)-2-(4-fluorophenyl)-4-(trifluoromethoxy)piperidin-1-yl)-N-(1,2,4-thiadiazol-5-yl)chroman-7-sulfonamide], 0.235 µM.
With `O=S(=O)(Nc1ncns1)c1ccc2c(c1)OCC[C@@H]2N1CC[C@H](OC(F)(F)F)C[C@@H]1c1ccc(F)cc1` [Example 175, (S)-4-((2R,4S)-2-(4-fluorophenyl)-4-(trifluoromethoxy)piperidin-1-yl)-N-(1,2,4-thiadiazol-5-yl)chroman-7-sulfonamide], the “Nav1.7 (LBA)” value came to 0.00305 µM.
On to `O=S(=O)(Nc1ncns1)c1ccc2c(c1)OCC[C@H]2N1CC[C@H](OC(F)(F)F)C[C@@H]1c1ccc(F)cc1` [Example 176, (R)-4-((2R,4S)-2-(4-fluorophenyl)-4-(trifluoromethoxy)piperidin-1-yl)-N-(1,2,4-thiadiazol-5-yl)chroman-7-sulfonamide], for which the “Nav1.7 (LBA)” value worked out at 0.0248 µM.
As for `N#C[C@@H]1CCN([C@H]2CCOc3cc(S(=O)(=O)Nc4ncns4)ccc32)[C@H](c2ccc(F)cc2)C1` [Example 177, (S)-4-((2S,4R)-4-cyano-2-(4-fluorophenyl)piperidin-1-yl)-N-(1,2,4-thiadiazol-5-yl)chroman-7-sulfonamide], the figure is 0.00584 µM; as for `N#C[C@@H]1CCN([C@@H]2CCOc3cc(S(=O)(=O)Nc4ncns4)ccc32)[C@H](c2ccc(F)cc2)C1` [Example 178, (R)-4-((2S,4R)-4-cyano-2-(4-fluorophenyl)piperidin-1-yl)-N-(1,2,4-thiadiazol-5-yl)chroman-7-sulfonamide], 1.02 µM; as for `N#C[C@H]1CCN([C@H]2CCOc3cc(S(=O)(=O)Nc4ncns4)ccc32)[C@@H](c2ccc(F)cc2)C1` [Example 179, (S)-4-((2R,4S)-4-cyano-2-(4-fluorophenyl)piperidin-1-yl)-N-(1,2,4-thiadiazol-5-yl)chroman-7-sulfonamide], 0.0109 µM.
As for `N#C[C@H]1CCN([C@@H]2CCOc3cc(S(=O)(=O)Nc4ncns4)ccc32)[C@@H](c2ccc(F)cc2)C1` [Example 180, (R)-4-((2R,4S)-4-cyano-2-(4-fluorophenyl)piperidin-1-yl)-N-(1,2,4-thiadiazol-5-yl)chroman-7-sulfonamide], the figure is 0.158 µM.
For `O=S(=O)(Nc1ncns1)c1ccc2c(c1)OCC[C@H]2N1CC[C@@H](CF)C[C@H]1c1ccc(F)cc1` [Example 181, (R)-4-((2S,4R)-4-(fluoromethyl)-2-(4-fluorophenyl)piperidin-1-yl)-N-(1,2,4-thiadiazol-5-yl)chroman-7-sulfonamide] the value was 0.735 µM; for `O=S(=O)(Nc1ncns1)c1ccc2c(c1)OCC[C@@H]2N1CC[C@@H](CF)C[C@H]1c1ccc(F)cc1` [Example 182, (S)-4-((2S,4R)-4-(fluoromethyl)-2-(4-fluorophenyl)piperidin-1-yl)-N-(1,2,4-thiadiazol-5-yl)chroman-7-sulfonamide], 0.00399 µM; for `O=S(=O)(Nc1ncns1)c1ccc2c(c1)OCC[C@@H]2N1CC[C@H](CF)C[C@@H]1c1ccc(F)cc1` [Example 183, (S)-4-((2R,4S)-4-(fluoromethyl)-2-(4-fluorophenyl)piperidin-1-yl)-N-(1,2,4-thiadiazol-5-yl)chroman-7-sulfonamide], 0.00652 µM.
For `O=S(=O)(Nc1ncns1)c1ccc2c(c1)OCC[C@H]2N1CC[C@H](CF)C[C@@H]1c1ccc(F)cc1` [Example 184, (R)-4-((2R,4S)-4-(fluoromethyl)-2-(4-fluorophenyl)piperidin-1-yl)-N-(1,2,4-thiadiazol-5-yl)chroman-7-sulfonamide], the “Nav1.7 (LBA)” value stood at 0.132 µM.
With `O=S(=O)(Nc1ncns1)c1ccc2c(c1)OCC[C@H]2N1CC[C@@H](C(F)F)C[C@H]1c1ccc(F)cc1` [Example 185, (R)-4-((2S,4R)-4-(difluoromethyl)-2-(4-fluorophenyl)piperidin-1-yl)-N-(1,2,4-thiadiazol-5-yl)chroman-7-sulfonamide], the “Nav1.7 (LBA)” value was found to be 2.18 µM.
In the case of `O=S(=O)(Nc1ncns1)c1ccc2c(c1)OCC[C@@H]2N1CC[C@@H](C(F)F)C[C@H]1c1ccc(F)cc1` [Example 186, (S)-4-((2S,4R)-4-(difluoromethyl)-2-(4-fluorophenyl)piperidin-1-yl)-N-(1,2,4-thiadiazol-5-yl)chroman-7-sulfonamide], the “Nav1.7 (LBA)” value came out at 0.00214 µM.
As for `O=S(=O)(Nc1ncns1)c1ccc2c(c1)OCC[C@@H]2N1CC[C@H](C(F)F)C[C@@H]1c1ccc(F)cc1` [Example 187, (S)-4-((2R,4S)-4-(difluoromethyl)-2-(4-fluorophenyl)piperidin-1-yl)-N-(1,2,4-thiadiazol-5-yl)chroman-7-sulfonamide], the figure is 0.00255 µM.
For `O=S(=O)(Nc1ncns1)c1ccc2c(c1)OCC[C@H]2N1CC[C@H](C(F)F)C[C@@H]1c1ccc(F)cc1` [Example 188, (R)-4-((2R,4S)-4-(difluoromethyl)-2-(4-fluorophenyl)piperidin-1-yl)-N-(1,2,4-thiadiazol-5-yl)chroman-7-sulfonamide] the value was 0.131 µM; for `O=S(=O)(Nc1nccs1)c1cc2c(cc1F)[C@H](N1CC[C@@H](C(F)(F)F)C[C@H]1c1ccccn1)CCO2` [Example 190, (R)-6-fluoro-4-((2S,4R)-2-(pyridin-2-yl)-4-(trifluoromethyl)piperidin-1-yl)-N-(thiazol-2-yl)chroman-7-sulfonamide], 0.0448 µM; for `O=S(=O)(Nc1ncns1)c1ccc2c(c1)OCC[C@H]2N1CC[C@@H](C(F)(F)F)C[C@H]1c1ccccn1` [Example 191, (R)-4-((2S,4R)-2-(pyridin-2-yl)-4-(trifluoromethyl)piperidin-1-yl)-N-(1,2,4-thiadiazol-5-yl)chroman-7-sulfonamide], 0.176 µM.
Regarding `O=S(=O)(Nc1nccs1)c1cc2c(cc1F)[C@H](N1CC[C@@H](C(F)(F)F)C[C@H]1c1cccnc1)CCO2` [Example 193, (R)-6-fluoro-4-((2S,4R)-2-(pyridin-3-yl)-4-(trifluoromethyl)piperidin-1-yl)-N-(thiazol-2-yl)chroman-7-sulfonamide], the “Nav1.7 (LBA)” value came to 0.0103 µM.
As for `O=S(=O)(Nc1nccs1)c1cc2c(cc1F)[C@H](N1CC[C@@H](C(F)(F)F)C[C@H]1c1ccncc1)CCO2` [Example 195, (R)-6-fluoro-4-((2S,4R)-2-(pyridin-4-yl)-4-(trifluoromethyl)piperidin-1-yl)-N-(thiazol-2-yl)chroman-7-sulfonamide], the figure is 0.0901 µM; as for `O=S(=O)(Nc1nccs1)c1cc2c(cc1F)[C@H](N1CC[C@@H](C(F)(F)F)C[C@H]1c1ccc(F)c(F)c1)CCO2` [Example 197, (R)-4-((2S,4R)-2-(3,4-difluorophenyl)-4-(trifluoromethyl)piperidin-1-yl)-6-fluoro-N-(thiazol-2-yl)chroman-7-sulfonamide], 0.351 µM.
Take `O=S(=O)(Nc1nccs1)c1cc2c(cc1F)[C@@H](N1CC[C@@H](C(F)(F)F)C[C@H]1c1ccc(F)c(F)c1)CCO2` [Example 198, (S)-4-((2S,4R)-2-(3,4-difluorophenyl)-4-(trifluoromethyl)piperidin-1-yl)-6-fluoro-N-(thiazol-2-yl)chroman-7-sulfonamide]: the “Nav1.7 (LBA)” value is 0.000649 µM.
For `O=S(=O)(Nc1nccs1)c1cc2c(cc1F)[C@H](N1CC[C@@H](C(F)(F)F)C[C@H]1c1cn[nH]c1)CCO2` [Example 199, (R)-4-((2S,4R)-2-(1H-pyrazol-4-yl)-4-(trifluoromethyl)piperidin-1-yl)-6-fluoro-N-(thiazol-2-yl)chroman-7-sulfonamide] the value was 0.11 µM.
As to `Cn1cc([C@@H]2C[C@H](C(F)(F)F)CCN2[C@H]2CCOc3cc(S(=O)(=O)Nc4ncns4)ccc32)cn1` [Example 201, (S)-4-((2S,4R)-2-(1-methyl-1H-pyrazol-4-yl)-4-(trifluoromethyl)piperidin-1-yl)-N-(1,2,4-thiadiazol-5-yl)chroman-7-sulfonamide], the “Nav1.7 (LBA)” value came out at 0.0037 µM.
